One experiment has as its system HGC-27 (E542K). The experiment is described as follows: Proliferation inhibition of PI3Kα mutant cancer cells, Cell Titer-Glo, HGC-27. It counts as cell-based. The conditions noted are these: Homo sapiens. Here is the method: (§1) The proliferation inhibitory effect of the compounds of the examples on the PI3Kα mutant cancer cell lines (HCC1954, HGC-27 and MKN1) was detected by Cell Titer-Glo method. Cell lines were cultured in RPMI 1640 medium (Gibco #22400089) containing 10% FBS (Gibco #10091148) and 1% P/S (Hyclone #SV30010) under the condition of 37° C. and 5% CO2. The cells were collected before the experiment, and the cell density was adjusted after cell counting. The cells were seeded in a white 96-well plate (Corning #3610) at a density of 1000 to 10000 cells/well, and incubated in an incubator at 37° C. and 5% CO2 overnight. The prepared compound solutions of different concentrations and the corresponding solvent controls were added to the plate. The plate was again incubated in an incubator at 37° C. and 5% CO2 for 48 to 96 hours. Then the cell plate and its contents were equilibrated to room temperature. 20 to 100 μL of Cell Titer-Glo solution (Promega #G7573) was added to each well, and the plate was shaken and mixed well, then incubated at room temperature for 5 to 30 minutes in the dark. The chemiluminescence was measured by a SynergyH1 microplate reader from BioTek.
(§2) The percentage inhibition data of the compound-treated well was calculated from solvent control wells on the plate {% inhibition=100−([…])×100}. IC50 values were calculated using GraphPad prism and using a four-parameter nonlinear logistic formula to fit the data of different concentrations and corresponding percent inhibition.
(In general: Cellular ATP, detected with luciferase, serves as a proxy for viable cell number.)

The target of another experiment is T1, PI3Kγ (Homo sapiens, UniProt P48736).
T1 construct: purchased Thermofisher #PV4786
The experiment is described as follows: ADP-Glo Lipid Kinase Assay, PI3Kγ kinase activity. The experiment is classed as biochemical. Particulars: for Selectivity of PI3Kα vs PI3Kγ: ratio of IC50 values. The protocol: (§3) In this experiment, ADP-Glo Lipid Kinase Assay (Promega #V9102) from Promega was used. The lipid kinases PI3Kα/β/γ/δ catalyzed the ATP-to-ADP reaction in the presence of the substrate PIP2:3PS and ATP. The lipid kinase activity was characterized by measuring the ADP content in the reaction, and the half inhibition concentrations IC50 of the compounds on PI3Kα/β/γ/δ kinase activity were obtained.
(§4) Kinase reactions were carried out in white 384-well plates (Perkin Elmer #6007299). 2 μL of the compound of various concentrations diluted with ddH2O containing 1% DMSO was added to each well, and 2 μL of ddH2O containing 1% DMSO was added to positive control wells. Then 2 μL of 0.1 to 2 nM PI3K kinase solution diluted with 5× kinase buffer (HEPES 250 mM, MgCl2 15 mM, NaCl 250 mM, BSA 0.05%) was added to each well, and 2 μL of 5× kinase buffer was added to the negative control wells. 4 μL of 50 μM substrate PIP2:3PS (Promega #V1701) prepared with 10× Dilution buffer and ddH2O was added to all wells. Finally, 2 μL of 50 to 100 μM ATP solution diluted with water was added to start the reaction. After the reaction was carried out at room temperature for 90 to 120 minutes, 10 µL of ADP-Glo Reagent (containing 10 mM MgCl2) was added to each well, and the reaction was carried out at room temperature for 60 minutes to eliminate excess adenosine triphosphate (ATP) in the reaction. Then 20 μL of Kinase Detection Reagent was added to each well. After the reaction was carried out for 20 minutes at room temperature in the dark, the chemiluminescence was measured by BioTek Synergy H1 microplate reader.
(§5) The percentage inhibition data of the compound-treated well was calculated from positive control wells (DMSO control wells) and negative control wells (no kinase added) on the plate {% inhibition=100−[(test compound value−negative control value)]/(positive control value-negative control value)×100}. IC50 values were calculated using GraphPad prism and using a four-parameter nonlinear logistic formula to fit the data of different concentrations and corresponding percent inhibition.

A further experiment addresses T2, PI3Kδ (Homo sapiens, UniProt O00329).
T2 construct: purchased Carna #11-103
The experiment is described as follows: ADP-Glo Lipid Kinase Assay, PI3Kδ kinase activity. It counts as biochemical. The conditions noted are these: for Selectivity of PI3Kα vs PI3Kδ: ratio of IC50 values. The protocol:
as §3, §4, §5
(In ADP-Glo the light output rises with the ADP produced.)

For another experiment, the system named is MKN1 (E545K). The experiment is described as follows: Proliferation inhibition of PI3Kα mutant cancer cells, Cell Titer-Glo, MKN1. It counts as cell-based. The conditions noted are these: Homo sapiens, MKN-1. Here is the method: as §1, §2
The subject of the next experiment is HCC1954 cell. Description: In vivo efficacy test, HCC1954 tumor-bearing nude mice. The conditions noted are these: oral, 10 mg/kg, once/day, 21 days (Example 22: 19 days). On the set-up: species or system BALB/c nude mice. Here is the method: • a. A strain of HCC1954 cell was taken from the cell bank, recovered with RPMI-1640 medium (RPMI-1640+10% FBS+1% SP), plated in a cell culture flask (cell type, date, name of the experimenter and the like were labeled on the wall of the flask) and cultured in a CO2 incubator (the temperature was 37° C. and the CO2 concentration was 5% in the incubator). • b. Cells were passaged when they covered 80 to 90% of the bottom of the culture flask. After passage, the cells continued to be cultured in the CO2 incubator. This process was repeated until the number of cells was sufficient for the in vivo efficacy test. • c. The cultured cells were collected and counted with an automatic cell counter, and then resuspended with PBS and Matrigel Matrix according to the counting results to prepare a cell suspension (density 5×10^7/mL), which was placed in an ice box for use. 4.3.2 Cell Inoculation • a. The nude mice were labeled with disposable universal ear tags for rats and mice before inoculation. • b. During the inoculation, the cell suspension was mixed well. 0.1 to 1 mL of the cell suspension was drawn with a 1 mL syringe, air bubbles were removed, and then the syringe was placed on an ice pack for use. • c. The nude mouse was bound with the left hand. The position on the right side of the back close to the right shoulder of the nude mouse (inoculation site) was disinfected with 75% alcohol. Inoculation started after 30 seconds. • d. The test nude mice were successively inoculated (each mouse was inoculated with 0.1 mL of cell suspension). 4.3.3 Tumor Measurement, Grouping and Administration of Tumor-Bearing Mice • a. According to the tumor growth, the tumors was measured on 14 to 18 days after inoculation, and the tumor size was calculated. Calculation of tumor volume: tumor volume (mm^3)=length (mm)×width (mm)×width (mm)/2 • b. The tumor-bearing mice were grouped according to their body weight and tumor size by random grouping. • c. The test compounds were administered according to the grouping results (administration route: oral administration; administration dose: 10 mg/kg; administration volume: 10 mL/kg; administration frequency: once/day; administration cycle: 21 days; vehicle: 0.5% CMC/1% Tween 80). • d. Tumors were measured and weighed twice a week after the administration of test compounds began. • e. Animals were euthanized at the end of the experiment. • f. Data were processed by using softwares such as Excel. […] When the tumor regress, TGI (%)=[1−(average tumor volume of the treatment group at the end of the administration−average tumor volume of the treatment group at the beginning of the administration)/average tumor volume of the treatment group at the beginning of the administration]×100%.

The target of another experiment is T3, PI3Kβ (Homo sapiens, UniProt P42338).
T3 construct: purchased Carna #11-102
Description: ADP-Glo Lipid Kinase Assay, PI3Kβ kinase activity. It counts as biochemical. The conditions noted are these: for Selectivity of PI3Kα vs PI3Kβ: ratio of IC50 values. The protocol: as §3, §4, §5

The next experiment concerns HCC1954 (H1047R). Description: Proliferation inhibition of PI3Kα mutant cancer cells, Cell Titer-Glo, HCC1954. It counts as cell-based. The conditions noted are these: Homo sapiens. Here is the method: as §1, §2

One may read the IC50 as the point on the concentration scale where inhibition reaches its midpoint.

T3 sequence (P42338 whole entry): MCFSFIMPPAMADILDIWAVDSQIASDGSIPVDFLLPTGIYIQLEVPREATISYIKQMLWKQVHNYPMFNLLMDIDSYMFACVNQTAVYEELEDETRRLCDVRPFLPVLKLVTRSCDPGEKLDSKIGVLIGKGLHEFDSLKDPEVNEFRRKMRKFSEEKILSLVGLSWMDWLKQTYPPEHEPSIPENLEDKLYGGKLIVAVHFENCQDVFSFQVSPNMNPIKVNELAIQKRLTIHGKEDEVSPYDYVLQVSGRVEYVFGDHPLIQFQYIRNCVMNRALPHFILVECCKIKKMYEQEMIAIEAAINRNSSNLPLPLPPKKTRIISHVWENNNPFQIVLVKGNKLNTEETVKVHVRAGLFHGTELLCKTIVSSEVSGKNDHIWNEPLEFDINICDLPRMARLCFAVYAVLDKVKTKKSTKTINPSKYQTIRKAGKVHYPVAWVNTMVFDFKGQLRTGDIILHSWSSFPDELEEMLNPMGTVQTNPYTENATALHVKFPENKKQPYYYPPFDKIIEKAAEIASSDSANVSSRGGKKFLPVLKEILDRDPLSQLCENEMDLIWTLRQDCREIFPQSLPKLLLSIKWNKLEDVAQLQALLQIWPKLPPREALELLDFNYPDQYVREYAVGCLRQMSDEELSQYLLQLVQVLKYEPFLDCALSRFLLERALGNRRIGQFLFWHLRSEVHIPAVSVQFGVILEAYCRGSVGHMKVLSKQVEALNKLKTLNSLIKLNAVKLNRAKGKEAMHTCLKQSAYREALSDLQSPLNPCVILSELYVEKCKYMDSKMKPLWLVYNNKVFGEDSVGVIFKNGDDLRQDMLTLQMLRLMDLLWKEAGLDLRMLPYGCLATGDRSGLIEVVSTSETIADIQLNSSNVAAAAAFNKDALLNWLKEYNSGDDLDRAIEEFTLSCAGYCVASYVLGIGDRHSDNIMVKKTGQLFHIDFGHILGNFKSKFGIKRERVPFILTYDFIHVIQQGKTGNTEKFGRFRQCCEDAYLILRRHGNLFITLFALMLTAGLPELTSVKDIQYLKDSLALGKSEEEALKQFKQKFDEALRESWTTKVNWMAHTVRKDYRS
T3 sequence (P27986 whole entry partner): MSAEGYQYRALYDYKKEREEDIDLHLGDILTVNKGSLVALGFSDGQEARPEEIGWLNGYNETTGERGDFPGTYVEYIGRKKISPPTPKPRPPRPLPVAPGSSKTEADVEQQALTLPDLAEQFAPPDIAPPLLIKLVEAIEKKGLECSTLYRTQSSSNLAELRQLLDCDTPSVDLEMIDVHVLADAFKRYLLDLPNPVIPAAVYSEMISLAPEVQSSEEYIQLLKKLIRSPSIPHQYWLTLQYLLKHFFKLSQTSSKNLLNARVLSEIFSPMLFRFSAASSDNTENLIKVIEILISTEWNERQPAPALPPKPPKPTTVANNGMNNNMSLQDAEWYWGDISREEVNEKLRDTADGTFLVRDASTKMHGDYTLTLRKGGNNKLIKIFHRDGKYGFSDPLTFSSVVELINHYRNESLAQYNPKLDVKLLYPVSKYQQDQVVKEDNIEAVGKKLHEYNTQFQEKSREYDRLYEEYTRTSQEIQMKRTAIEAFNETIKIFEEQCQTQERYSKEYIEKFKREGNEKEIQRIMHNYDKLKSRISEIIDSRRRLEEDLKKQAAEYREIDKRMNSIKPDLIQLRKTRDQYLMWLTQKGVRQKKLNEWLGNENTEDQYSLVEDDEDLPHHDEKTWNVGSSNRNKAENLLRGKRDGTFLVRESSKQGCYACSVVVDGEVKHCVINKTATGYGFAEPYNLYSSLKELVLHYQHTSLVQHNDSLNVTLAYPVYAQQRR
T2 sequence (O00329 whole entry): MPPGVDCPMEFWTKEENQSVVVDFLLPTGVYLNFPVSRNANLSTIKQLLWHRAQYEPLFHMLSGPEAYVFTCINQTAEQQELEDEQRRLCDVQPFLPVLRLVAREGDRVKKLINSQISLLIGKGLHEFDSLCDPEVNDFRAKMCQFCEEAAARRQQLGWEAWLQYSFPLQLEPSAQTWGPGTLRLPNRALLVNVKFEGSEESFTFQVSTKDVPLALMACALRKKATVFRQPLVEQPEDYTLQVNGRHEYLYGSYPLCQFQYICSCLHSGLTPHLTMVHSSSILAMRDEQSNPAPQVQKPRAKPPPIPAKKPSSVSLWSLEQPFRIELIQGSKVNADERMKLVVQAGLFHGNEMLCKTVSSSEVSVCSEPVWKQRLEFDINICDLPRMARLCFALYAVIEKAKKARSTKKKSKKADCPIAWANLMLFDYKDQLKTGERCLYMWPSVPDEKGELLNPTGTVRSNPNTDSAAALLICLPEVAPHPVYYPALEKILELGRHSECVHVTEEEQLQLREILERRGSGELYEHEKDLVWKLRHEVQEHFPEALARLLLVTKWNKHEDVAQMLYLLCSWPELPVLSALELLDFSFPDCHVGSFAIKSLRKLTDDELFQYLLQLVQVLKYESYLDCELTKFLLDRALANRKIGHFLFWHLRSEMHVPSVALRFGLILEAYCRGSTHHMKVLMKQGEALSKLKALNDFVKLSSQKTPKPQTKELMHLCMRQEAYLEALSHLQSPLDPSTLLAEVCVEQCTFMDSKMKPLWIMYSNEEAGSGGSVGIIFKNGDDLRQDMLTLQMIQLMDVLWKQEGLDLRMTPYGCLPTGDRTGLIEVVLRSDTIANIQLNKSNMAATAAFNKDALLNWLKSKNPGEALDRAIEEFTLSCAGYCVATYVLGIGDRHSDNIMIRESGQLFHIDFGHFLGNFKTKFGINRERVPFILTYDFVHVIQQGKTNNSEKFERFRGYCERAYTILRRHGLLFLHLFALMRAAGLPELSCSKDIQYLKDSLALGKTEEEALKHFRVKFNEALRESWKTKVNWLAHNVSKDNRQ
T2 sequence (P27986 whole entry partner): as the sequence (P27986 whole entry partner) above
T1 sequence (P48736 whole entry): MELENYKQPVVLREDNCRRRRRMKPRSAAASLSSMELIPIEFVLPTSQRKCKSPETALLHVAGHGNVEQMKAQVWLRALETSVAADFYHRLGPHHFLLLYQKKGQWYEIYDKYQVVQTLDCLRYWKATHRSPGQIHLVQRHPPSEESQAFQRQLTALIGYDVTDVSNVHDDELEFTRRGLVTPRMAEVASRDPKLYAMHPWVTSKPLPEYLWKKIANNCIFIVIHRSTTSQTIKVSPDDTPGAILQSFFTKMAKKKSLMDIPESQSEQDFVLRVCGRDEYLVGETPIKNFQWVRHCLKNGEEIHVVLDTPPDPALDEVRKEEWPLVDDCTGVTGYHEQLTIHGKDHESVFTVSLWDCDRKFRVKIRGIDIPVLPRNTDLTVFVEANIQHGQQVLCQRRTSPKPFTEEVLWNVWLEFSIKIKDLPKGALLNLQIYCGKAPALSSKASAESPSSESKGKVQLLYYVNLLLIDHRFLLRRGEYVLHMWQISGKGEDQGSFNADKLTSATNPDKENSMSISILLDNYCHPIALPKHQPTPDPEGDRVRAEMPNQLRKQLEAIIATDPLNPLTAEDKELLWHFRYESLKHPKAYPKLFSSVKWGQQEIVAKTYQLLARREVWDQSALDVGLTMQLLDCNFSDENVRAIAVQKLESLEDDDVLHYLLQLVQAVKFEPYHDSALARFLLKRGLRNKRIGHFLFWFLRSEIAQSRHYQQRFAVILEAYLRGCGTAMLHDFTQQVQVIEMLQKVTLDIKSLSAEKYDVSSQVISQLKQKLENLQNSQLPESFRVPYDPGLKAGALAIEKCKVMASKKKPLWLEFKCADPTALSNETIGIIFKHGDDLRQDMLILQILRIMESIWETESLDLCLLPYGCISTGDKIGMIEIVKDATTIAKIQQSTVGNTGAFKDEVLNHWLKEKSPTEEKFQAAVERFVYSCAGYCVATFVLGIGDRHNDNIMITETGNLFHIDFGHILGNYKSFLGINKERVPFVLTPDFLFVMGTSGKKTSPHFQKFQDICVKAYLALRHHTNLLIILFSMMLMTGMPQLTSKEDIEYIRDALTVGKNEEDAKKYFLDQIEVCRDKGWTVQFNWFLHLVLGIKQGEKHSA

Turning to `C[C@H](Nc1ccc2c(c1)OCCn1cc(N3C(=O)SC[C@H]3C(F)F)nc1-2)C(N)=O` [Example 22, (S)-2-((2-((R)-4-(difluoromethyl)-2-oxothiazolidin-3-yl)-5,6-dihydrobenzo[f]imidazo[1,2-d][1,4]oxazepin-9-yl)amino)propionamide], the half-maximal inhibitory concentration (IC50) came out at 40 nM with HGC-27 (E542K), 60 nM with MKN1 (E545K) and 21 nM in the experiment with HCC1954 (H1047R). Further, the “Selectivity of PI3Kα vs PI3Kγ” value at PI3Kγ is listed as 450. Moreover, the “Selectivity of PI3Kα vs PI3Kδ” value at PI3Kδ was found to be 245. Besides, the “Tumor growth inhibition rate” value with HCC1954 cell is 132%. For the same compound, the “Selectivity of PI3Kα vs PI3Kβ” value on PI3Kβ is 840.
On to `C[C@H](Nc1ccc2c(c1)N(C)CCn1cc(N3C(=O)OC[C@H]3C(F)F)nc1-2)C(N)=O` [Example 56, (S)-2-((2-((S)-4-(difluoromethyl)-2-oxooxazolidin-3-yl)-7-methyl-6,7-dihydro-5H-benzo[f]imidazo[1,2-d][1,4]diazoheptin-9-yl)amino)propionamide], for which the concentration for half-maximal inhibition (IC50) is 110 nM in the experiment with HGC-27 (E542K); 90 nM at PI3Kγ; 49 nM at PI3Kδ; 104 nM in the experiment with MKN1 (E545K); 168 nM on PI3Kβ; 50 nM in the experiment with HCC1954 (H1047R). In addition, the “Selectivity of PI3Kα vs PI3Kγ” value on PI3Kγ is reported as 180. The “Selectivity of PI3Kα vs PI3Kδ” value on PI3Kδ is listed as 98. In addition, the “Tumor growth inhibition rate” value in the experiment with HCC1954 cell stood at 122%. Also, at PI3Kβ, the “Selectivity of PI3Kα vs PI3Kβ” value is 336.
`C[C@H](Nc1ccc2c(c1)SCCn1cc(N3C(=O)OC[C@H]3C(F)F)nc1-2)C(N)=O` [Example 62, (S)-2-((2-((S)-4-(difluoromethyl)-2-oxooxazolidin-3-yl)-5,6-dihydrobenzo[f]imidazo[1,2-d][1,4]thiazepin-9-yl)amino)propionamide]: the IC50 with HGC-27 (E542K) came out at 22 nM; on PI3Kγ, 50 nM; on PI3Kδ it was 28 nM; with MKN1 (E545K) it was 25 nM; at PI3Kβ, 102 nM; with HCC1954 (H1047R), 13 nM. Further, the “Selectivity of PI3Kα vs PI3Kγ” value on PI3Kγ is 500. The “Selectivity of PI3Kα vs PI3Kδ” value at PI3Kδ is recorded as 280. Besides, the “Tumor growth inhibition rate” value with HCC1954 cell is 147%. Further, on PI3Kβ, the “Selectivity of PI3Kα vs PI3Kβ” value came out at 1020.

The values are drawn from patent US12624050B2, “Three fused ring derivative-containing salt or crystal form and pharmaceutical composition thereof” (Shanghai Hansoh Biomedical Co., Ltd., priority 2019, dated 2026).
